Test results as given in US20200030414A1, “THERAPEUTIC AGENT FOR SHORT STATURE” (Daiichi Sankyo Company, Limited, priority 2017, published 2020).
Where a SMILES comes first, the peptide text is derived from it. Bridges are numbered along the chain shown (N, C = ends). Where no end group is shown, it is not given here.

Tests used:
NPR-B = settings: Furuya et al. 1992; cited from earlier work
[1] = Estimated concentration in plasma during repeated subcutaneous administration with two vehicles (Example 3); format: in vivo, rat
[2] = Blood pressure lowering effect, 24-hour continuous intravenous administration, telemetry (Example 4); format: in vivo, cynomolgus monkey; set-up: Systolic blood pressure fluctuation range (maximum value %): unit not given here; settings: for Systolic blood pressure fluctuation range (maximum value %): maximum value during administration period
Procedure: (§1) The CNP derivative (A) was continuously intravenously administered at doses of 0.015 to 0.1 mg/kg/day at a constant rate to telemetry transmitter-implanted cynomolgus monkeys (two males and two females), and studied for its influence on blood pressure (systolic, diastolic, and average blood pressures), heart rate, and an electrocardiographic parameter.

[3] = Concentration in plasma during 24-hour continuous intravenous administration (Example 4); format: in vivo, cynomolgus monkey; settings: 0.1 mg/kg/day continuous i.v. 24 h, immediately before completion of administration
Procedure: as §1
[Table 3: Systolic blood pressure fluctuation range (maximum value during administration period) when CNP derivative (A) was continuously intravenously administered at constant rate for 24 hours to cynomolgus monkey, and concentration of CNP derivative (A) in plasma immediately before completion of administration

[4] = Body length after 7-day repeated or continuous subcutaneous administration (Example 2); format: in vivo, rat; settings: for Body length (from mouth to end of tail): male SD rat
Procedure: A dosing solution of the CNP derivative (A) or (B) was repeatedly subcutaneously administered at doses of 0.005, 0.015, 0.05, 0.15 and 0.5 mg/kg/day once a day for 7 days to 7-week-old male Crl:CD (SD) rats, or charged in an osmotic pump (MINI-OSMOTIC PUMP Model 2002, manufactured by DURECT Corp., flow rate: 0.5 μL/hr, for 14-day use), implanted in the backs of rats, and continuously subcutaneously administered at these doses for 7 days. Their body lengths (from the mouth to the end of the tail) were measured before the start of administration and 8 days after the start of administration.

[5] = normal mice, continuous intravenous administration, increased bone length; cited from earlier work

Chain of NPR-B (P20594 23-1047, species assumed): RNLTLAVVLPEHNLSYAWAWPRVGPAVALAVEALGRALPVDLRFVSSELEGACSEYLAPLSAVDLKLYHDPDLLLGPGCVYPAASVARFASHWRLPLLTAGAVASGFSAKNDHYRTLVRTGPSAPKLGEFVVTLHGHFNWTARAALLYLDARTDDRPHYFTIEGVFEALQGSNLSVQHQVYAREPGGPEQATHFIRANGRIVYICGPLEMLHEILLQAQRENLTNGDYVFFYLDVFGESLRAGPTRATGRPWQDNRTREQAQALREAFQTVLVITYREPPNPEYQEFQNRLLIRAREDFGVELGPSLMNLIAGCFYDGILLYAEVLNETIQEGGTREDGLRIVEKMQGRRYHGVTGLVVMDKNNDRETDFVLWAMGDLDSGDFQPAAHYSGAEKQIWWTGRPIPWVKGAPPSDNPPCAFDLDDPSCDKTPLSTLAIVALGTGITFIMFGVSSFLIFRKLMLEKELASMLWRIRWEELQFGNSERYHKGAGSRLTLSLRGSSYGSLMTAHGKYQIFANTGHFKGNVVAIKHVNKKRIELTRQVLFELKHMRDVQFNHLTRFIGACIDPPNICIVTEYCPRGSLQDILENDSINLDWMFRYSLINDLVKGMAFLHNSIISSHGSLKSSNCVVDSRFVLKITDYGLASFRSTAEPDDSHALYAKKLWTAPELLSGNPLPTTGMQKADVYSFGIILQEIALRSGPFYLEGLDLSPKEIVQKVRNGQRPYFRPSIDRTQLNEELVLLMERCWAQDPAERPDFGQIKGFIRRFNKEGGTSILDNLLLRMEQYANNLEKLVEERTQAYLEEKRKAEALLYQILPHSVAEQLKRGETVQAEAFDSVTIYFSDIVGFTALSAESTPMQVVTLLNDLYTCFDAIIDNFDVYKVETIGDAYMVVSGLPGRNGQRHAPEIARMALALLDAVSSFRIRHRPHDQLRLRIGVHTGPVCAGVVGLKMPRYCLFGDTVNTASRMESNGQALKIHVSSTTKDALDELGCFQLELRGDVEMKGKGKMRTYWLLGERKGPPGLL

## CNP6-22: peptide consisting of the ring structure, amino acid positions 6 to 22 of SEQ ID NO: 1 (CFGLKLDRIGSMSGLGC; disulfide 1-17 (inferred); listed as Homo sapiens)
NPR-B
  NPR-B agonistic activity compared with hCNP-22: almost equivalent to that of hCNP-22

## CC[C@H](C)[C@@H]1NC(=O)[C@H](CCCNC(=N)N)NC(=O)[C@H](CC(=O)O)NC(=O)[C@H](CC(C)C)NC(=O)[C@H](CCCCN)NC(=O)[C@H](CC(C)C)NC(=O)CNC(=O)[C@H](Cc2ccccc2)NC(=O)[C@@H](NC(=O)CNC(=O)[C@H](CCCCN)NC(=O)[C@H](CO)NC(=O)[C@H](CC(C)C)NC(=O)CN)CSSC[C@@H](C(=O)N[C@H](C(=O)N[C@@H](CCC(N)=O)C(=O)N[C@@H](CCC(N)=O)C(=O)N[C@@H](CCCNC(=N)N)C(=O)N[C@@H](CCCCN)C(=O)N[C@@H](CC(=O)O)C(=O)N[C@@H](CO)C(=O)N[C@@H](CCCCN)C(=O)N[C@@H](CCCCN)C(=O)N2CCC[C@H]2C(=O)N2CCC[C@H]2C(=O)N[C@@H](C)C(=O)N[C@@H](CCCCN)C(=O)N[C@@H](CC(C)C)C(=O)N[C@@H](CCC(N)=O)C(=O)N2CCC[C@H]2C(=O)N[C@@H](CCCNC(=N)N)C(=O)O)C(C)C)NC(=O)CNC(=O)[C@H](CC(C)C)NC(=O)CNC(=O)[C@H](CO)NC(=O)[C@H](CCSC)NC(=O)[C@H](CO)NC(=O)CNC1=O [CNP derivative (A)] (H-GLSKGCFGLKLDRIGSMSGLGCVQQRKDSKKPPAKLQPR-OH; disulfide 6-22; N-terminus and C-terminus assumed)
[1]; vehicle 1, 0.5 mg/kg s.c., 9 hours after administration
  estimated concentration in plasma: ≤ 0.1 ng/mL
[1]; vehicle 1, 0.5 mg/kg s.c., immediately after administration
  estimated concentration in plasma: ≥ 200 ng/mL
[1]; vehicle 2, 0.25 mg/kg s.c.
  peak concentration in plasma (estimated): about 40 ng/mL
[1]; vehicle 2, 0.25 mg/kg s.c., 12 hours after administration
  estimated concentration in plasma: ≥ 0.1 ng/mL
[2]; 0.015 mg/kg/day continuous i.v. 24 h
  Systolic blood pressure fluctuation range (maximum value %): −6.8
[2]; 0.05 mg/kg continuous i.v.
  systolic blood pressure decrease: −11.0 mmHg
[2]; 0.05 mg/kg/day continuous i.v. 24 h
  Systolic blood pressure fluctuation range (maximum value %): −11.0
[2]; 0.1 mg/kg continuous i.v.
  systolic blood pressure decrease: −20.5 mmHg
[2]; 0.1 mg/kg/day continuous i.v. 24 h
  Systolic blood pressure fluctuation range (maximum value %): −20.5
[2]; concentration in plasma up to 9.8 ng/mL at its maximum
  reflex tachycardia: no symptom indicating reflex tachycardia was observed
[2]; elevated by continuous change
  concentration in plasma up to which reflex tachycardia is less likely to occur: about 10 ng/mL
[2]; observed from 0.05 mg/kg
  blood pressure lowering effect (systolic and average blood pressures), average of differences from pre-administration values: exceeding 10 mmHg
[2]; waking cynomolgus monkeys
  concentration in plasma at which the risk of developing decreased blood pressure is drastically reduced: ≤ 4 ng/mL
[3]
  Concentration in plasma: 9.8 ng/mL

## CNP derivative (B): derivative consisting of the amino acid sequence Pro-Gly-CNP-37 (SEQ ID NO: 4), from WO2009/067639, under clinical development for achondroplasia (PGQEHPNARKYKGANKKGLSKGCFGLKLDRIGSMSGLGC; CNP derivative D, which disclosed in Am. J. Hum. Gent.(2012), 91(6), 1108-1114)
[4]; 7 days
  bone growth effect per dose, continuous vs repeated subcutaneous administration: stronger under continuous subcutaneous administration conditions
[4]; continuous subcutaneous, 0.005 mg/kg/day, 7 days
  Body length (from mouth to end of tail): 215.2 ± 3.5 ^NS mm
[4]; continuous subcutaneous, 0.015 mg/kg/day, 7 days
  Body length (from mouth to end of tail): 213.6 ± 4.4 ^NS mm
[4]; continuous subcutaneous, 0.05 mg/kg/day, 7 days
  Body length (from mouth to end of tail): 212.2 ± 5.2 ^NS mm
[4]; continuous subcutaneous, 0.15 mg/kg/day, 7 days
  Body length (from mouth to end of tail): 220.2 ± 4.3 mm
[4]; continuous subcutaneous, 0.5 mg/kg/day, 7 days
  Body length (from mouth to end of tail): 222.8 ± 3.5 mm
[4]; continuous subcutaneous, 7-day, doses of 0.15 mg/kg/day or higher
  increase in body length (from the mouth to the end of the tail): significant increase
[4]; repeated subcutaneous administration conditions, 7 days
  effect on body length: no significant effect
[4]; repeated subcutaneous, 0.005 mg/kg/day, 7 days
  Body length (from mouth to end of tail): 211.8 ± 2.9 ^NS mm
[4]; repeated subcutaneous, 0.015 mg/kg/day, 7 days
  Body length (from mouth to end of tail): 213.2 ± 4.4 ^NS mm
[4]; repeated subcutaneous, 0.05 mg/kg/day, 7 days
  Body length (from mouth to end of tail): 214.4 ± 4.7 ^NS mm
[4]; repeated subcutaneous, 0.15 mg/kg/day, 7 days
  Body length (from mouth to end of tail): 211.3 ± 4.5 ^NS mm
[4]; repeated subcutaneous, 0.5 mg/kg/day, 7 days
  Body length (from mouth to end of tail): 215.2 ± 3.3 ^NS mm

## CNP-22
[5]
  effective concentration in plasma: 29.3 ng/mL
